Assays:
TrzSMsmeg = target: T1, TrzSMsmeg (Mycolicibacterium smegmatis, UniProt A0QUG4); assay type: biochemical
T1 construct: gene MSMEG_2198

TyzAMtb = target: T2, TyzAMtb (Mycobacterium tuberculosis, UniProt P95232)
T2 construct: gene Rv2336
T2 sequence (P95232 1-322): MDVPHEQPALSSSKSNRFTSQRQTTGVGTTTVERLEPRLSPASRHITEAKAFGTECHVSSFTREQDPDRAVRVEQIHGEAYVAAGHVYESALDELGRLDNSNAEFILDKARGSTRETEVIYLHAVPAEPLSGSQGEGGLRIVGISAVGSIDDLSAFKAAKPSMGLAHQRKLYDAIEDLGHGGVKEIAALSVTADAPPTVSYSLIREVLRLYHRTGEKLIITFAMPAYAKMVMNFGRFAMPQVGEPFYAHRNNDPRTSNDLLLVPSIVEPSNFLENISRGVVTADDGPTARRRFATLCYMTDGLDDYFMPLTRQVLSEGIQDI

T1 sequence (A0QUG4 1-723): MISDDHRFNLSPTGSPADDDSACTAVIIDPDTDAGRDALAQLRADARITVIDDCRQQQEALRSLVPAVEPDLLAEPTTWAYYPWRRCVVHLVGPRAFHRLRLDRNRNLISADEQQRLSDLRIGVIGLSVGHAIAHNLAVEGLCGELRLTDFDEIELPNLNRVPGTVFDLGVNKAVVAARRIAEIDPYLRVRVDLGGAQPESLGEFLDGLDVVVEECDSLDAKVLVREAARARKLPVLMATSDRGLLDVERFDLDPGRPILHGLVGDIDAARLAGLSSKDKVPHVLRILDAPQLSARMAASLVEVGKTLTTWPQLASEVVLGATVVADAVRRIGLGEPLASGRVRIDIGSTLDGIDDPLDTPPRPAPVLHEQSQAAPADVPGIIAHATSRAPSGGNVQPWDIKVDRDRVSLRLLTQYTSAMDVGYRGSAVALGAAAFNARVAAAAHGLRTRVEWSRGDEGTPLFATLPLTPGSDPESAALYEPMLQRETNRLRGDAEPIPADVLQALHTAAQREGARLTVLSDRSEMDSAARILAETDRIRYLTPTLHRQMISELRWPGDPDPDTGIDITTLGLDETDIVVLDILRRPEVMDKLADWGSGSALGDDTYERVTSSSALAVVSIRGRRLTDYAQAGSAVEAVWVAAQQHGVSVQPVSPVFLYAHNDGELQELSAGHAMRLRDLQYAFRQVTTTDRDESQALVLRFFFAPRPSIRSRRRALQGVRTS

SMILES	LC-QTOF product detection, coupled with TrzAMtb (TrzSMsmeg)	LC-QTOF endpoint product detection (TyzAMtb)
Nc1ncnc2c1ncn2[C@@H]1O[C@H](COP(=O)(O)OP(=O)(O)OP(=O)(O)O)[C@@H](O)[C@H]1O [ATP]	only the N-acyl tryptophan was observed when ATP was omitted from the reaction	
CCCC(=O)N[C@@H](Cc1c[nH]c2ccccc12)C(=O)O [C4:0-tryptophan]	we detected significant amounts of C4:0-tryptophan, produced by TrzAMtb, and C4:0-tryptazolone	
CCCCCCCCCCCC(=O)SCCNC(=O)CCNC(=O)[C@H](O)C(C)(C)COP(=O)(O)OP(=O)(O)OC[C@H]1O[C@@H](n2cnc3c(N)ncnc32)[C@H](O)[C@@H]1OP(=O)(O)O [C12:0-CoA]		we detected substantial amounts of C12:0-Tyr, C12:0-tyrazolone
